Reference: ChEMBL document CHEMBL3580578, “Optimization of 5-(2,6-dichlorophenyl)-3-hydroxy-2-mercaptocyclohex-2-enones as potent inhibitors of human lactate dehydrogenase” (Bioorg Med Chem Lett, 2014)
In brackets after ≈: the same amount, converted by molar mass.

Tests used:
[1] = molecular target: T1, Malate dehydrogenase, mitochondrial (Homo sapiens, UniProt P40926); assay: Inhibition of malate dehydrogenase 2 (unknown origin)
T1 sequence (P40926 whole entry): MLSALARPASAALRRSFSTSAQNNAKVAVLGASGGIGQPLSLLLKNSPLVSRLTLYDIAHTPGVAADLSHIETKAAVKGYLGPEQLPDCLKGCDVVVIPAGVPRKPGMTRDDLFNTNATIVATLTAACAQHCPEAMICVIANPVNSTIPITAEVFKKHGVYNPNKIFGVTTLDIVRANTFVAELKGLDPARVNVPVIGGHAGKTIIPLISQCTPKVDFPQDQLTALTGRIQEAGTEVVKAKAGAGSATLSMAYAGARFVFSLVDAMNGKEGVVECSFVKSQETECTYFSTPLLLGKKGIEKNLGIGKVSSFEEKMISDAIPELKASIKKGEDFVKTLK

[2] = molecular target: T2, Malate dehydrogenase, cytoplasmic (Homo sapiens, UniProt P40925); assay: Inhibition of malate dehydrogenase 1 (unknown origin)
T2 sequence (P40925 whole entry): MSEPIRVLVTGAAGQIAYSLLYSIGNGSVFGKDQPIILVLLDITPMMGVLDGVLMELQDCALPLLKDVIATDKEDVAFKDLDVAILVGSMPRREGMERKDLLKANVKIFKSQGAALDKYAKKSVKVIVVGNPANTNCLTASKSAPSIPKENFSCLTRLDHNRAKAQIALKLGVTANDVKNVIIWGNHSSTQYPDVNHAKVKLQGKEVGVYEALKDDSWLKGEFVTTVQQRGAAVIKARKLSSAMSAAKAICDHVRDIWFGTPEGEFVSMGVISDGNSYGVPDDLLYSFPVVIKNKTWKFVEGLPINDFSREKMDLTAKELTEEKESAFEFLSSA

[3] = molecular target: L-lactate dehydrogenase A chain (Homo sapiens, UniProt P00338); assay: Inhibition of human LDH-A by biochemical assay
[4] = Plasma protein binding in human; type: ADME, cell-free; conditions: read-out: PPB
[5] = Kinetic solubility of the compound in PBS buffer at pH 7.4
[6] = Apparent permeability from apical to basolateral side in MDCK cells; type: ADME, cell-based, Canis lupus familiaris; conditions: dog
[7] = Stability in mouse plasma assessed as parent compound remaining at 37 degC after 1 hr; type: ADME, cell-free; conditions: read-out: Stability
[8] = molecular target: L-lactate dehydrogenase B chain (Homo sapiens, UniProt P07195)
L-lactate dehydrogenase B chain, sequence (P07195 whole entry): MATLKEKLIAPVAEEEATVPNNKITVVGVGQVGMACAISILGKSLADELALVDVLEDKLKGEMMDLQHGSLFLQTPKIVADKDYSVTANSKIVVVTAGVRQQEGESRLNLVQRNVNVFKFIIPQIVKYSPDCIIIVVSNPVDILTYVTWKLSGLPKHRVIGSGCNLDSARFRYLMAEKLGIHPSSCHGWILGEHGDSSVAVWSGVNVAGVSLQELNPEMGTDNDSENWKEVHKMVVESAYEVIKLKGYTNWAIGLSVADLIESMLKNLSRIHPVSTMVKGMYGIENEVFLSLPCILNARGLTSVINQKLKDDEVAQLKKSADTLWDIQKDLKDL
Description: Inhibition of LDH-B (unknown origin)

| IC50 [1] [µM] | IC50 [2] [µM] | IC50 [3] [µM] | fraction unbound [4] | solubility kinetic [5] [µM] | Papp A→B [6] [×10⁻⁶ cm/s] | remaining at 1 h [7] [%] | IC50 [8] [µM] | Compound |
| --- | --- | --- | --- | --- | --- | --- | --- | --- |
| ≥ 10 | ≥ 10 |  |  |  |  |  |  | O=C1CC(c2c(Cl)cccc2Cl)CC(O)=C1Sc1ccccc1Cl (configuration not stated) |
| ≥ 10 | ≥ 10 | 0.03 |  |  |  |  |  | CCOC(=O)Cc1ccc(Cl)c(SC2=C(O)CC(c3c(Cl)ccc(-c4ccccc4)c3Cl)CC2=O)c1 (configuration not stated) |
| ≥ 10 | ≥ 10 | 0.09 |  |  |  |  |  | C[C@H](OC(=O)Cc1ccc(Cl)c(SC2=C(O)CC(c3c(Cl)cccc3Cl)CC2=O)c1)c1ccccc1 (some centres not stated) |
| ≥ 10 | ≥ 10 | 10 |  |  |  |  |  | CN(C)C(=O)Cc1ccc(Cl)c(SC2=C(O)CC(c3c(Cl)cccc3Cl)CC2=O)c1 (configuration not stated) |
| ≥ 10 | ≥ 10 | 0.1 |  |  |  |  |  | O=C1CC(c2c(Cl)ccc(-c3ccccc3)c2Cl)CC(O)=C1Sc1ccccc1Cl (configuration not stated) |
| ≥ 10 | ≥ 10 | 0.006 |  | 61 (≈ 34.3 µg/mL) | 10.6 | 72 |  | C[C@@H](OC(=O)Cc1ccc(Cl)c(SC2=C(O)CC(c3c(Cl)cccc3Cl)CC2=O)c1)c1ccccc1 (some centres not stated) |
| ≥ 10 | ≥ 10 | 0.025 |  |  |  |  |  | COc1ccc(Cl)c(SC2=C(O)CC(c3c(Cl)ccc(OC(C)C)c3Cl)CC2=O)c1 (configuration not stated) |
| ≥ 10 | ≥ 10 | 0.12 |  |  |  |  |  | CC(C)OC(=O)Cc1ccc(Cl)c(SC2=C(O)CC(c3c(Cl)cccc3Cl)CC2=O)c1 (configuration not stated) |
| ≥ 10 | ≥ 10 | 0.37 |  |  |  |  |  | COc1ccc(Cl)c(SC2=C(O)CC(c3c(Cl)cccc3Cl)CC2=O)c1 (configuration not stated) |
| ≥ 10 | ≥ 10 | 0.3 |  |  |  |  |  | O=C(Cc1ccc(Cl)c(SC2=C(O)CC(c3c(Cl)cccc3Cl)CC2=O)c1)NCCO (configuration not stated) |
| ≥ 10 | ≥ 10 | 0.24 |  |  |  |  |  | O=C1CC(c2c(Cl)ccc(N3CCOCC3)c2Cl)CC(O)=C1Sc1ccccc1Cl (configuration not stated) |
| ≥ 10 | ≥ 10 | 0.37 |  |  |  |  |  | O=C1CC(c2c(Cl)ccc(N3CCN(C4COC4)CC3)c2Cl)CC(O)=C1Sc1ccccc1Cl (configuration not stated) |

Second part, the molecule before the results:

| Compound | IC50 [1] [µM] | IC50 [2] [µM] | IC50 [3] [µM] | fraction unbound [4] | solubility kinetic [5] [µM] | Papp A→B [6] [×10⁻⁶ cm/s] | remaining at 1 h [7] [%] | IC50 [8] [µM] |
| --- | --- | --- | --- | --- | --- | --- | --- | --- |
| O=C1CC(c2c(Cl)ccc(N3CCNCC3)c2Cl)CC(O)=C1Sc1ccccc1Cl (configuration not stated) | ≥ 10 | ≥ 10 | 0.17 |  |  |  |  |  |
| O=C1CC(c2c(Cl)ccc(-c3ccncc3)c2Cl)CC(O)=C1Sc1ccccc1Cl (configuration not stated) | ≥ 10 | ≥ 10 | 0.085 |  |  |  |  |  |
| O=C1CC(c2c(Cl)ccc(N3CCN(C4CC4)CC3)c2Cl)CC(O)=C1Sc1ccccc1Cl (configuration not stated) | ≥ 10 | ≥ 10 | 0.23 |  |  |  |  |  |
| COC(=O)Cc1ccc(Cl)c(SC2=C(O)CC(c3c(Cl)cccc3Cl)CC2=O)c1 (configuration not stated) | ≥ 10 | ≥ 10 | 0.04 |  |  |  |  |  |
| COc1ccc(Cl)c(SC2=C(O)CC(c3c(Cl)ccc(NC4CCOCC4)c3Cl)CC2=O)c1 (configuration not stated) | ≥ 10 | ≥ 10 | 0.03 | < 0.001 | 49 (≈ 25.9 µg/mL) | 14 |  |  |
| O=C(O)Cc1ccc(Cl)c(SC2=C(O)CC(c3c(Cl)cccc3Cl)CC2=O)c1 (configuration not stated) | ≥ 10 | ≥ 10 | 3.5 |  |  |  |  |  |
| CNC(=O)Cc1ccc(Cl)c(SC2=C(O)CC(c3c(Cl)cccc3Cl)CC2=O)c1 (configuration not stated) | ≥ 10 | ≥ 10 | 1.8 |  |  |  |  |  |
| Nc1ccc(Cl)c(SC2=C(O)CC(c3c(Cl)cccc3Cl)CC2=O)c1 (configuration not stated) | ≥ 10 | ≥ 10 | 0.64 |  |  |  |  |  |
| O=C1CC(c2c(Cl)ccc(-c3cccnc3)c2Cl)CC(O)=C1Sc1ccccc1Cl (configuration not stated) | ≥ 10 | ≥ 10 | 0.108 |  |  |  |  |  |
| O=C1CC(c2c(Cl)cccc2Cl)CC(O)=C1Sc1cc(O)ccc1Cl (configuration not stated) | ≥ 10 | ≥ 10 | 0.12 |  |  |  |  |  |
| COc1ccc(C#N)c(SC2=C(O)CC(c3c(Cl)ccc(OC(C)C)c3Cl)CC2=O)c1 (configuration not stated) | ≥ 10 | ≥ 10 | 0.46 |  |  |  |  | 2.4 |
| COc1ccc(Cl)c(SC2=C(O)CC(c3c(Cl)ccc(-c4ccncc4)c3Cl)CC2=O)c1 (configuration not stated) | ≥ 10 | ≥ 10 | 0.035 |  |  |  |  |  |
| CCOC(=O)Cc1ccc(Cl)c(SC2=C(O)CC(c3c(Cl)cccc3Cl)CC2=O)c1 (configuration not stated) | ≥ 10 | ≥ 10 | 0.13 |  |  |  |  |  |
| O=C1CC(c2c(Cl)ccc(-c3ccccc3Cl)c2Cl)CC(O)=C1Sc1ccccc1Cl (configuration not stated) | ≥ 10 | ≥ 10 | 0.06 |  |  |  |  |  |
| CNc1ccc(Cl)c(SC2=C(O)CC(c3c(Cl)cccc3Cl)CC2=O)c1 (configuration not stated) | ≥ 10 | ≥ 10 | 0.17 |  |  |  |  |  |
| CC(C)Oc1ccc(Cl)c(C2CC(=O)C(Sc3cc(O)ccc3C#N)=C(O)C2)c1Cl (configuration not stated) | ≥ 10 | ≥ 10 | 0.015 | < 0.001 | 50 (≈ 23.2 µg/mL) | 1.1 |  | 0.14 |
| O=C1CC(c2c(Cl)ccc(NC3CCOCC3)c2Cl)CC(O)=C1Sc1ccccc1Cl (configuration not stated) | ≥ 10 | ≥ 10 | 0.06 |  |  |  |  |  |
| CC(C)Oc1ccc(Cl)c(C2CC(=O)C(Sc3cc(O)ccc3Cl)=C(O)C2)c1Cl (configuration not stated) | ≥ 10 | ≥ 10 | 0.03 |  |  |  |  |  |
| CC(=O)N1CCN(c2ccc(Cl)c(C3CC(=O)C(Sc4ccccc4Cl)=C(O)C3)c2Cl)CC1 (configuration not stated) | ≥ 10 | ≥ 10 | 0.1 |  |  |  |  |  |
| CC(C)Oc1ccc(Cl)c(C2CC(=O)C(Sc3ccccc3Cl)=C(O)C2)c1Cl (configuration not stated) | ≥ 10 | ≥ 10 | 0.09 |  |  |  |  |  |
| O=C1CC(c2c(Cl)ccc(-c3cncnc3)c2Cl)CC(O)=C1Sc1ccccc1Cl (configuration not stated) | ≥ 10 | ≥ 10 | 1.1 |  |  |  |  |  |
| O=C1CC(c2c(Cl)cc(N3CCOCC3)cc2Cl)CC(O)=C1Sc1ccccc1Cl (configuration not stated) | ≥ 10 | ≥ 10 | 2.6 |  |  |  |  |  |
